Laboratory results taken from patent US8586611B2 (priority 2005, dated 2013).
Like-named read-outs stand apart in the source and are kept apart here.

What was measured:
Assay type in all cases: in vivo
Phytophthora infestans [1] = test: whole plant or invertebrate; conditions: for Test D disease rating (100 = 100% disease control, 0 = no disease control): tomato late blight
Phytophthora infestans [2] = test: whole plant or invertebrate; conditions: for Test C disease rating (100 = 100% disease control, 0 = no disease control): tomato late blight
Plasmopara viticola = test: Test B: grape downy mildew, spray 24 h after inoculation (disease rating, 100 = 100% disease control)
Text: (§1) The test compounds were first dissolved in acetone in an amount equal to 3% of the final volume and then suspended at the desired concentration (in ppm) in acetone and purified water (50/50 mix by volume) containing 250 ppm of the surfactant Trem® 014 (polyhydric alcohol esters). The resulting test suspensions were then used in tests A-E. Spraying a 200 ppm test suspension to the point of run-off on the test plants was the equivalent of a rate of 500 g/ha.
Grape seedlings were inoculated with a spore suspension of Plasmopara viticola (the causal agent of grape downy mildew) and incubated in a saturated atmosphere at 20° C. for 24 h. After a short drying period, the test suspension was sprayed to the point of run-off on the grape seedlings and then moved to a growth chamber at 20° C. for 5 days, after which the test units were placed back into a saturated atmosphere at 20° C. for 24 h. Upon removal, disease ratings were made.
(§2) Results for Tests A-F are given in Table A. In the table, a rating of 100 indicates 100% disease control and a rating of 0 indicates no disease control (relative to the controls). A dash (-) indicates no test results.

[3] = system: Erysiphe graminis f. sp. tritici; test: Test E: wheat powdery mildew, spray the day before inoculation (disease rating, 100 = 100% disease control)
Text: as §1
The test suspension was sprayed to the point of run-off on wheat seedlings. The following day the seedlings were inoculated with a spore dust of Erysiphe graminis f. sp. tritici, (the causal agent of wheat powdery mildew) and incubated in a growth chamber at 20° C. for 7 days, after which disease ratings were made.
as §2

[4] = spray 17 h after inoculation, compounds without asterisk (not 40 or 10 ppm)
[5] = spray the day before inoculation, compounds without asterisk (not 40 or 10 ppm)
[6] = spray 24 h after inoculation, compounds without asterisk (not 40 or 10 ppm)
[7] = sprayed 17 h after inoculation, unmarked compounds (no asterisk, not 40 or 10 ppm)
[8] = sprayed the day before inoculation, unmarked compounds (no asterisk, not 40 or 10 ppm)
[9] = sprayed 24 h after inoculation, unmarked compounds (no asterisk, not 40 or 10 ppm)
[10] = sprayed the day before inoculation, 7 days at 20° C., unmarked compounds (no asterisk, not 40 or 10 ppm)
[11] = spray 17 h after inoculation, tested at 40 ppm
[12] = spray the day before inoculation, tested at 40 ppm
[13] = spray 24 h after inoculation, tested at 40 ppm

SMILES	Test D disease rating (100 = 100% disease control, 0 = no disease control) (Phytophthora infestans [1]; [4]) [%]	Test C disease rating (100 = 100% disease control, 0 = no disease control) (Phytophthora infestans [2]; [5]) [%]	Test B disease rating (100 = 100% disease control, 0 = no disease control) (Plasmopara viticola; [6]) [%]	Test E disease rating (100 = 100% disease control, 0 = no disease control) [3, 5] [%]	other results
Cc1cc(C(F)(F)F)nn1CC(=O)N1CCC(c2nc(C(=O)N(C)Cc3ccccc3)cs2)CC1 [compound 248]	80	100	88	53	
Cc1nc(C2CCN(C(=O)Cn3nc(C(F)(F)F)cc3C)CC2)sc1C(=O)N(C)[C@@H]1CCCc2ccccc21 [compound 227]	0	63	44	0	
CN(Cc1ccncc1)C(=O)c1csc(C2CCN(C(=O)Cc3cccc(C(F)(F)F)c3)CC2)n1 [compound 169]	0	68	8	0	
Cc1cnn(CC(=O)N2CCC(c3nc(C(=O)N(C)[C@H](C)c4ccccc4)cs3)CC2)c1 [compound 73]	9	75	2	0	
Cc1ccc(C)c(CC(=O)N2CCC(c3nc(C(=O)N(C)C(C)c4cc(C)oc4C)cs3)CC2)c1 (stereo not drawn) [compound 113]	31	97	0	0	
CCOc1ccccc1CC(=O)N1CCC(c2nc(C(=O)N(C)[C@H](C)c3ccccc3)cs2)CC1 [compound 78]	46	78	100	0	
Cc1cc(C(F)(F)F)nn1CC(=O)N1CCC(c2nc(C(=O)NCCc3ccccc3)cs2)CC1 [compound 314]					Test D disease rating (100 = 100% disease control, 0 = no disease control) (Phytophthora infestans [1]; [7]): 99; Test C disease rating (100 = 100% disease control, 0 = no disease control) (Phytophthora infestans [2]; [8]): 100; Test B disease rating (100 = 100% disease control, 0 = no disease control) (Plasmopara viticola; [9]): 98; Test E disease rating (100 = 100% disease control, 0 = no disease control) [3, 10]: 0
CCC1C=Cc2ccccc2C1N(C)C(=O)c1csc(C2CCN(C(=O)Cn3nc(C(F)(F)F)cc3C)CC2)n1 (stereo not drawn) [compound 228]	99	100	88	0	
CC(c1ccncc1)N(C)C(=O)c1csc(C2CCN(C(=O)Cc3cccc(C(F)(F)F)c3)CC2)n1 (stereo not drawn) [compound 76]	0	79	0	0	
CCC(C)c1cc(C)n(CC(=O)N2CCC(c3nc(C(=O)N(C)[C@H](C)c4ccccc4)cs3)CC2)n1 (stereo partly drawn) [compound 142]	0	0	0	87	
C[C@H](c1ccccc1)N(C)C(=O)c1csc(C2CCN(C(=O)Cc3cccc(F)c3F)CC2)n1 [compound 46]					Test D disease rating (100 = 100% disease control, 0 = no disease control) (Phytophthora infestans [1]; [11]): 0%; Test C disease rating (100 = 100% disease control, 0 = no disease control) (Phytophthora infestans [2]; [12]): 0%; Test B disease rating (100 = 100% disease control, 0 = no disease control) (Plasmopara viticola; [13]): 0%; Test E disease rating (100 = 100% disease control, 0 = no disease control) [3, 12]: 0%
Cc1ccc(C)c(CC(=O)N2CCC(c3nc(C(=O)N(C)[C@@H]4CCc5ccccc54)cs3)CC2)c1 [compound 130]	100	54	99	0	
COc1cccc([C@@H](C)NC(=O)c2csc(C3CCN(C(=O)Cc4cccc(Br)c4)CC3)n2)c1 [compound 281]					Test D disease rating (100 = 100% disease control, 0 = no disease control) (Phytophthora infestans [1]; [7]): 0; Test C disease rating (100 = 100% disease control, 0 = no disease control) (Phytophthora infestans [2]; [8]): 0; Test B disease rating (100 = 100% disease control, 0 = no disease control) (Plasmopara viticola; [9]): 15; Test E disease rating (100 = 100% disease control, 0 = no disease control) [3, 10]: 0
CNC(=O)OC1CCC(N(C)C(=O)c2csc(C3CCN(C(=O)Cn4nc(C(F)(F)F)cc4C)CC3)n2)c2ccccc21 (stereo not drawn) [compound 219]	99	99	69	0	
COc1ccc2c(c1)CCCC2N(C)C(=O)c1csc(C2CCN(C(=O)Cn3nc(C(F)(F)F)cc3C)CC2)n1 (stereo not drawn) [compound 197]					Test D disease rating (100 = 100% disease control, 0 = no disease control) (Phytophthora infestans [1]; [11]): 99%; Test C disease rating (100 = 100% disease control, 0 = no disease control) (Phytophthora infestans [2]; [12]): 100%; Test B disease rating (100 = 100% disease control, 0 = no disease control) (Plasmopara viticola; [13]): 98%; Test E disease rating (100 = 100% disease control, 0 = no disease control) [3, 12]: 0%
Cc1ccc([C@@H](C)NC(=O)c2csc(C3CCN(C(=O)Cc4cccc(Br)c4)CC3)n2)cc1 [compound 274]					Test D disease rating (100 = 100% disease control, 0 = no disease control) (Phytophthora infestans [1]; [7]): 0; Test C disease rating (100 = 100% disease control, 0 = no disease control) (Phytophthora infestans [2]; [8]): 37; Test B disease rating (100 = 100% disease control, 0 = no disease control) (Plasmopara viticola; [9]): 29; Test E disease rating (100 = 100% disease control, 0 = no disease control) [3, 10]: 0
Cc1ccc(C)c(CC(=O)N2CCC(c3nc(C(=O)N(C)[C@H](C)C4CCCCC4)cs3)CC2)c1 [compound 166]	16	68	34	0	
Cc1cc(C(F)(F)F)nn1CC(=O)N1CCC(n2cc(C(=O)N(C)[C@@H]3CCCc4ccccc43)cn2)CC1 [Compound 233, N-methyl-1-[1-[[5-methyl-3-(trifluoromethyl)-1H-pyrazol-1-yl]acetyl]-4-piperidinyl]-N-[(1R)-1,2,3,4-tetrahydro-1-naphthalenyl]-1H-pyrazole-4-carboxamide]					pest or weed control at 40 ppm (Phytophthora infestans [1]; Phytophthora infestans, in Solanum lycopersicum, topical, 96 h, read-out: Test D disease rating (100 = 100% disease control, 0 = no disease control)): 99%; pest or weed control at 40 ppm (Phytophthora infestans [2]; Phytophthora infestans, in Solanum lycopersicum, 144 h, read-out: Test C disease rating (100 = 100% disease control, 0 = no disease control)): 100%; pest or weed control at 40 ppm (Plasmopara viticola; Plasmopara viticola, 144 h, spray 24 h after inoculation, tested at 40 ppm, read-out: Test B disease rating (100 = 100% disease control, 0 = no disease control)): 99%; pest or weed control at 40 ppm ([3]; Blumeria graminis, topical, 168 h, spray the day before inoculation, tested at 40 ppm, read-out: Test E disease rating (100 = 100% disease control, 0 = no disease control)): 0%
Cc1cc(C(F)(F)F)nn1CC(=O)N1CCC(c2nc(C(=O)N(C)C(c3ccc(Cl)cc3)C(F)(F)F)cs2)CC1 (stereo not drawn) [compound 253]					Test D disease rating (100 = 100% disease control, 0 = no disease control) (Phytophthora infestans [1]; sprayed 17 h after inoculation, tested at 40 ppm (*)): 67; Test C disease rating (100 = 100% disease control, 0 = no disease control) (Phytophthora infestans [2]; sprayed the day before inoculation, tested at 40 ppm (*)): 90; Test B disease rating (100 = 100% disease control, 0 = no disease control) (Plasmopara viticola; sprayed 24 h after inoculation, tested at 40 ppm (*)): 96; Test E disease rating (100 = 100% disease control, 0 = no disease control) ([3]; sprayed the day before inoculation, 7 days at 20° C., tested at 40 ppm (*)): 0
Cc1cccc(CC(=O)N2CCC(c3nc(C(=O)N(C)Cc4ccncc4)cs3)CC2)c1 [compound 170]	0	29	7	0	
CC[C@H](c1ccccc1)N(C)C(=O)c1csc(C2CCN(C(=O)Cc3cccc(C)c3)CC2)n1 [compound 116]	87	49	100	0	
